Entries after “also recorded” stand apart in the source; their conditions may differ.
Key:
[1] = tested on: neuronal cell types; details: cited from earlier work
[2] = tested on: retinal ganglion cell death; details: acute and chronic models of retinal ganglion cell death, glaucoma; cited from earlier work
[3] = tested on: HT22 neuronal cells; assay: HT22 glutamate injury model, cell viability by XTT assay; type: cell-based; details: for neuroprotection in glutamate injury model: 1 μM LXB4, glutamate challenge
Excerpt: In order to confirm the bioactivity of the synthesized material, its neuroprotective effects were confirmed in a neuronal injury model. Recent clinical failures of a variety of neuroprotection trials have intensified interest in new treatment strategies. Evidence is accumulating that lipoxins and other lipid mediators can have an important impact on neuroinflammation and neuronal survival.[13,38] […] Yet the lack of efficient syntheses of LXB4 coupled with the expensive cost from commercial sources (USD$806/100 μg, Cayman Chemical)[36] have made this new mechanism of action challenging to modify and study. In this regard the presently described synthetic route towards LXB4, and analogues thereof, provide a benefit for improving production and/or reducing cost of production of LXB4 and analogues thereof. Therefore, the neuroprotective activity of newly synthesized LXB4 was compared it against the commercial source to confirm its activity.[36] For this assay, HT22 neuronal cells were pre-treated with LXB4 from both sources (commercial vs. in-house), followed by a glutamate challenge to induce excitotoxic cell death.[14] Cell viability was then measured using an XTT assay.
HT22 cells (SCC129, EMD Millipore) were grown on 100-mm tissue culture dishes (83.3902.300, Sarstedt) and maintained in high glucose DMEM (Sigma, D5796-500ML) supplemented with 10% fetal bovine serum (080-150, Wisent) and 1% Penstrep (15140122, Gibco) at 37° C. in a 5% CO2 atmosphere incubator (67/340,1045, CellXpert C170, Eppendorf). Cells used for experiments were maintained at a <80% confluency and <25 passages, and were dissociated using TrypIE (12604013, Gibco).
HT22 cells were seeded at 4×10^3 cells in 100 μL of the high glucose DMEM+10% fetal bovine serum+1% Penstrep media on replicate wells of 96-well plates (83.3924.300, Sarstedt) for 20 hours at 37° C. in a 5% CO2 atmosphere humidified incubator. Cells were then pretreated with 5 μL of the indicated LXB4 concentration, or vehicle, one hour prior to addition of 3 mM glutamate stressor. Cells were exposed for 13 hours, then evaluated for cell viability using an XTT assay, according to the manufacturer's instructions (11465015001, Roche). The resulting absorbance values were read in a BMG CLARIOstar microplate reader under 490 nm excitation following 2 hours of XTT incubation and analyzed using Graphpad Prism 9 for ANOVA analyses and curve fitting.

[4] = Storage and handling stability of LXB4; type: physicochemical
Procedure: Instability of LXB4 presented a substantial obstacle its synthesis and purification. […] Telescoping the final transformations from 27 to 2, preventing light exposure, and storing all crude intermediates in a methanol solution were required to obtain LXB4 of sufficient purity. LXB4 could be stored as a solution in methanol or ethanol at −20° C. for several weeks or at −80° C. for one to three months before substantial degradation was observed.
Dimethylethoxysilane (560 uL, 4.03 mmol, 8.0 equiv.) was added in one portion, followed by dropwise addition of Karstedt's catalyst (platinum(0)-1,3-divinyl-1,1,3,3,-tetramethyldisoloxane complex, 2% Pt) (115 μL, 0.010 mmol, 2 mol %). The round bottom flask was covered with foil to prevent UV exposure and the solution was stirred overnight at room temperature. […] The crude reaction mixture was filtered through a silica plug, which was washed with Et2O, and the collected filtrate was dried under vacuum to afford a yellow-brown oil. This oil was redissolved in anhydrous THF (4.4 mL) under argon. The solution was again wrapped in foil, and a solution of TBAF in THF (1.0 M, 4.0 mL, 8.0 equiv.) was added dropwise. The reaction was stirred at room temperature for 20 minutes. […] Another […] was added dropwise. […] The reaction was quenched by the addition of phosphate buffer (pH 7) and water and extracted with diethyl ether. The combined organic phase was dried over Na2SO4 and concentrated in vacuo. The crude oil was immediately redissolved in THF/H2O (3:1, 2.5 mL) and treated with LiOH (12.1 mg, 0.50 mmol, 1.0 equiv.) mmol. The resulting solution was stirred at room temperature in a round-bottom flask wrapped in aluminium foil until TLC indicated complete conversion. The reaction mixture was flash filtered through celite to remove any residual LiOH solid and washed with THF. The remaining solvent was removed in vacuo to afford a sticky yellow residue, which was immediately redissolved in MeOH. […] This material was purified by reverse phase HPLC (XBridge BEH OBD Prep column, 130A, 5 μM, 30 mm×150 mm) using a mobile phase of H2O+0.05% NH4OH (A) and acetonitrile+0.05% NH4OH (B) and a gradient elution of 97:3 A:B to 67:33 A:B. After lyophilization, we obtained 98.7 mg of LXB4 for a yield of 56% over three steps. LXB4 should be stored on dry ice until injected into the HPLC. In a solution in methanol at room temperature, formation of impurities which are extremely difficult to separate by HPLC occurred in 1-2 hours.

Row | stability to air and light [4] | stability in HPLC buffer ([4]; HPLC buffer) | stability stored as a solid ([4]; crude or purified material, room temperature) | stability stored as a solid ([4]; low temperature (−20° C.)) | time to formation of impurities ([4]; solution in methanol at room temperature) [h] | storage time before substantial degradation ([4]; solution in methanol or ethanol at −20° C.) | storage time before substantial degradation ([4]; solution in methanol or ethanol at −80° C.) | SMILES | potency relative to LXA4 ([1]; established neuronal injury model, also primary cortical, hippocampal and retinal ganglion cells) [fold] | potency and efficacy in direct neuroprotection compared with LXA4 ([1]; variety of neuronal cell types, acute and chronic injury models of glaucoma) | efficacy in vivo [2] | neuroprotection in glutamate injury model ([3]; n=8, p<0.05) | neuroprotection in glutamate injury model ([3]; n=8, p<0.05, listed as synthesized LXB4) | EC50 ([3]; Mus musculus, HT-22, glutamate injury, dose response curve, n=8) [nM]
1 | highly unstable | stable in HPLC buffer for several hours | rapid degradation | rapid degradation | 1 to 2 | several weeks | one to three | CCCCC[C@H](O)[C@H](O)/C=C/C=C/C=C\C=C\[C@@H](O)CCCC(=O)O [LXB4, (5S,6E,8Z,10E,12E,14R,15S)-5,14,15-trihydroxyicosa-6,8,10,12-tetraenoic acid] | 20 | significantly more potent and efficacious than LXA4 | efficacy in vivo | significantly neuroprotective | significant protection | 293
2 | – | – | – | – | – | – | – | CCCCC[C@H](O)[C@H](O)/C=C/C=C/C=C\C=C\[C@@H](O)CCCC(=O)O [commercial LXB4, reference compound] | – | – | – | significantly neuroprotective; also recorded: significant protection | – | –
